Where two headings read alike, the source gives them in different places.
Key:
[1] = Population pharmacokinetic modeling of teicoplanin plasma concentrations (two-compartment model, Phoenix NLME, FOCE-ELS); format: in vivo, renal transplant patients
Method: This prospective study was conducted at the kidney transplantation department in the Second Xiangya Hospital of Central South University (Changsha, China). […] The exclusion criteria were as follows: (i) lack any of the demographic and laboratory data described below, (ii) unable to get the blood samples, and (iii) pregnancy. This study was approved by the Ethics Committee of the Second Xiangya Hospital, Central South University, and informed consent was obtained from all patients or legal representatives of the patients. The study employed a two-phase enrollment design to establish and validate the population PK model. Initial model development utilized patient data collected between January 2022 and December 2023. Following the establishment of the final population PK model, a distinct cohort of patients was prospectively recruited between November 2024 and March 2025 to conduct an external validation.
The supernatant was immediately stored at −80℃ until analysis.
Plasma samples (200 µL) were extracted by protein precipitation with MARG-1A (500 µL), after vortex oscillation for 1 minute, centrifugation at 14,500 r/min for 8 min, and 600 µL of the clear supernatant was transferred into autosampler vials for further analysis.
One-, two-, and three-compartment models with first-order elimination were evaluated as potential structural PK models based on changes in the objective function value (OFV, −2 × log-likelihood) and goodness-of-fit plots. The inter-individual variability of the PK parameters was evaluated using an exponential model. Residual variability was selected with additive, proportional, and combined error models:
The following patient covariates were tested for their influence on the PK parameters of teicoplanin: age, sex, body weight, ALT, AST, TBIL, DBIL, ALB, baseline, and real-time CrCL. The stepwise covariate modeling (SCM) approach was used to test the covariate model in this analysis. A reduction in OFVs of ≥3.84 was considered to be statistically significant (P < 0.05) for the inclusion of one covariate in the forward inclusion steps, and an increase in OFVs of ≥6.63 was considered to be statistically significant (P < 0.01) in the backward elimination steps.
The validity of the final model was assessed by visual inspection of goodness-of-fit (GoF) plots, including observed concentrations versus individual predictions (IPRED), observed concentrations versus population predictions (PRED), and conditional weighted residuals (CWRES) versus population predictions and time. Next, the accuracy and stability of the final model were evaluated using the bootstrap method. The medians and 95% confidence intervals of the PK parameter estimates were obtained from the 1,000 bootstrap runs. The model was considered stable if the typical population values for the PK parameters of the final model were within the 95% confidence interval of the bootstrap results, and the biases were less than 10% with no bias across zero.

plasma albumin = conditions: ref not given; cited from earlier work
Source text: After that, a suitable maintaining dose should be employed to sustain the target concentration.

MRSA = conditions: patients achieving AUC24h/MIC ≥900; cited from earlier work
[2] = cited from earlier work
[3] = at equivalent dosages, cited from earlier work
Source text: Different pharmacokinetic characteristics are anticipated in renal transplant patients depending on the unique physiologic status of these patients ([18], [19]). Moreover, in the early postoperative phase following kidney transplantation, patients undergo gradual recovery of renal function, accompanied by increased urine output and a rapid decline in serum creatinine levels, typically returning to normal within 2–4 weeks ([20][–][22]). […] In addition, renal transplant patients are mor ...

[4] = renal transplant patients, 306 plasma samples from 79 patients

Substance	CL, bootstrap estimate (median) ([1]; bootstrap method (n = 992))	CLd, bootstrap estimate (median) ([1]; bootstrap method (n = 992))	CrCLCL, bootstrap estimate (median) ([1]; bootstrap method (n = 992))	Vc, bootstrap estimate (median) ([1]; bootstrap method (n = 992))	Vp, bootstrap estimate (median) ([1]; bootstrap method (n = 992))	distribution (volume) in the present model ([1]; renal transplant patients)	CLd, clearance between the central compartment and peripheral compartment (final model estimate) [1, 4]	Vc, volume distribution in the central compartment (final model estimate) [1, 4]	Vp, volume in the peripheral compartment (final model estimate) [1, 4]	CL, clearance in the central compartment (final model estimate, typical value) ([1]; renal transplant patients, iv 400 mg q12h x3 then 400 mg once daily, 1 h infusion, 306 plasma samples from 79 patients, 2LC-MS/MS, CL=0.711×(CrCL÷17)^0.198)	plasma protein binding rate (plasma albumin)	treatment success rate (MRSA)	distribution (volume) in previous models ([2]; mostly critically ill patients)	CL in critically ill patients ([2]; previously reported values, critically ill patients, no ref printed at the value)	incidence of neurological toxicity ([3]; other patients)	incidence of pigment toxicity ([3]; other patients)	incidence of neurological toxicity ([3]; renal transplant patients)	incidence of pigment toxicity ([3]; renal transplant patients)
teicoplanin	0.714 L/h	4.22 L/h	0.196	11.3 L	35 L	46.6 L	4.22 L/h	11.3 L	35.3 L	0.711 L/h	about 90%	87%	60.5 to 121.1 L	0.838 to 1.03 L/h				
polymyxin B															27%	15%	63.4%	51.5%
